#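 Method: 48-hour compound exposure of cells in 96-well plates, five concentrations, linear interpolation of endpoints. Abbreviation: GI50, concentration required for 50% inhibition of growth. At the TGI there is no net growth.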
# Tests used:
# Experiment in all cases: NCI-60 cell line screen, 48 h
# MOLT-4 leukemia = system: MOLT-4 leukemia
# PC-3 prostate = system: PC-3 prostate
# HT29 colon = system: HT29 colon
# OVCAR-5 ovarian = system: OVCAR-5 ovarian
# RXF 393 renal = system: RXF 393 renal
# HOP-62 NSCLC = system: HOP-62 NSCLC
# SK-MEL-2 melanoma = system: SK-MEL-2 melanoma
# EKVX NSCLC = system: EKVX NSCLC
# SF-539 CNS = system: SF-539 CNS
# HCT-15 colon = system: HCT-15 colon
# TK-10 renal = system: TK-10 renal
# SF-295 CNS = system: SF-295 CNS
# COLO 205 colon = system: COLO 205 colon
# M14 melanoma = system: M14 melanoma
# NCI-H23 lung = system: NCI-H23 lung
# NCI/ADR-RES ovarian = system: NCI/ADR-RES ovarian
# MDA-MB-231 breast = system: MDA-MB-231 breast
# OVCAR-3 ovarian = system: OVCAR-3 ovarian
# SK-MEL-5 melanoma = system: SK-MEL-5 melanoma
# T-47D breast = system: T-47D breast
# SW-620 colon = system: SW-620 colon
# U251 CNS = system: U251 CNS
# SR leukemia = system: SR leukemia
# MCF7 breast = system: MCF7 breast
# SF-268 CNS = system: SF-268 CNS
# SK-MEL-28 melanoma = system: SK-MEL-28 melanoma
# NCI-H226 lung = system: NCI-H226 lung
# HS 578T breast = system: HS 578T breast
# HCT-116 colon = system: HCT-116 colon
# IGROV1 ovarian = system: IGROV1 ovarian
# HCC-2998 colon = system: HCC-2998 colon
# SNB-19 CNS = system: SNB-19 CNS
# CAKI-1 renal = system: CAKI-1 renal
# K-562 leukemia = system: K-562 leukemia
# BT-549 breast = system: BT-549 breast
# 786-0 renal = system: 786-0 renal
# A549 NSCLC = system: A549 NSCLC
# SN12C renal = system: SN12C renal
# DU-145 prostate = system: DU-145 prostate
# HL-60(TB) leukemia = system: HL-60(TB) leukemia
# OVCAR-8 ovarian = system: OVCAR-8 ovarian
# UACC-257 melanoma = system: UACC-257 melanoma
# MALME-3M melanoma = system: MALME-3M melanoma
# KM12 colon = system: KM12 colon
# RPMI-8226 leukemia = system: RPMI-8226 leukemia
# ACHN renal = system: ACHN renal
# SNB-75 CNS = system: SNB-75 CNS
# HOP-92 NSCLC = system: HOP-92 NSCLC
# UO-31 renal = system: UO-31 renal
# SK-OV-3 ovarian = system: SK-OV-3 ovarian
# A498 renal = system: A498 renal
# OVCAR-4 ovarian = system: OVCAR-4 ovarian
# NCI-H460 lung = system: NCI-H460 lung
# CCRF-CEM leukemia = system: CCRF-CEM leukemia
# UACC-62 melanoma = system: UACC-62 melanoma
# LOX IMVI melanoma = system: LOX IMVI melanoma
# NCI-H522 lung = system: NCI-H522 lung
# MDA-MB-435 = system: MDA-MB-435
smiles,measurement,setting,value
O=C1NC(=O)/C(=C/c2c(Cl)nc3sccn23)S1,GI50,MOLT-4 leukemia,> 100 µM
same,TGI,MOLT-4 leukemia,> 100 µM
same,GI50,PC-3 prostate,> 87.7 µM
same,TGI,PC-3 prostate,> 100 µM
same,GI50,HT29 colon,> 100 µM
same,TGI,HT29 colon,> 100 µM
same,GI50,OVCAR-5 ovarian,> 74.6 µM
same,TGI,OVCAR-5 ovarian,> 100 µM
same,GI50,RXF 393 renal,> 65.7 µM
same,TGI,RXF 393 renal,> 100 µM
same,GI50,HOP-62 NSCLC,> 100 µM
same,TGI,HOP-62 NSCLC,> 100 µM
same,GI50,SK-MEL-2 melanoma,> 100 µM
same,TGI,SK-MEL-2 melanoma,> 100 µM
same,GI50,EKVX NSCLC,> 66.1 µM
same,TGI,EKVX NSCLC,> 100 µM
same,GI50,SF-539 CNS,> 31.8 µM
same,TGI,SF-539 CNS,> 83.8 µM
same,GI50,HCT-15 colon,> 74.9 µM
same,TGI,HCT-15 colon,> 100 µM
same,GI50,TK-10 renal,> 57.6 µM
same,TGI,TK-10 renal,> 100 µM
same,GI50,SF-295 CNS,64.4 µM
same,TGI,SF-295 CNS,> 100 µM
same,GI50,COLO 205 colon,> 86.6 µM
same,TGI,COLO 205 colon,> 100 µM
same,GI50,M14 melanoma,66.4 µM
same,TGI,M14 melanoma,> 100 µM
same,GI50,NCI-H23 lung,> 56.4 µM
same,TGI,NCI-H23 lung,> 100 µM
same,GI50,NCI/ADR-RES ovarian,> 100 µM
same,TGI,NCI/ADR-RES ovarian,> 100 µM
same,GI50,MDA-MB-231 breast,28.7 µM
same,TGI,MDA-MB-231 breast,> 100 µM
same,GI50,OVCAR-3 ovarian,> 70.9 µM
same,TGI,OVCAR-3 ovarian,> 100 µM
same,GI50,SK-MEL-5 melanoma,35.5 µM
same,TGI,SK-MEL-5 melanoma,> 100 µM
same,GI50,T-47D breast,31.3 µM
same,TGI,T-47D breast,> 75.8 µM
same,GI50,SW-620 colon,> 100 µM
same,TGI,SW-620 colon,> 100 µM
same,GI50,U251 CNS,> 81.1 µM
same,TGI,U251 CNS,> 100 µM
same,GI50,SR leukemia,37.6 µM
same,TGI,SR leukemia,> 100 µM
same,GI50,MCF7 breast,> 65.4 µM
same,TGI,MCF7 breast,> 100 µM
same,GI50,SF-268 CNS,> 57.1 µM
same,TGI,SF-268 CNS,> 100 µM
same,GI50,SK-MEL-28 melanoma,> 82.4 µM
same,TGI,SK-MEL-28 melanoma,> 100 µM
same,GI50,NCI-H226 lung,14.2 µM
same,TGI,NCI-H226 lung,> 100 µM
same,GI50,HS 578T breast,30.9 µM
same,TGI,HS 578T breast,> 100 µM
same,GI50,HCT-116 colon,80.4 µM
same,TGI,HCT-116 colon,> 100 µM
same,GI50,IGROV1 ovarian,> 100 µM
same,TGI,IGROV1 ovarian,> 100 µM
same,GI50,HCC-2998 colon,> 100 µM
same,TGI,HCC-2998 colon,> 100 µM
same,GI50,SNB-19 CNS,> 79.1 µM
same,TGI,SNB-19 CNS,> 100 µM
same,GI50,CAKI-1 renal,> 100 µM
same,TGI,CAKI-1 renal,> 100 µM
same,GI50,K-562 leukemia,68.9 µM
same,TGI,K-562 leukemia,> 100 µM
same,GI50,BT-549 breast,> 84.5 µM
same,TGI,BT-549 breast,> 100 µM
same,GI50,786-0 renal,> 85.8 µM
same,TGI,786-0 renal,> 100 µM
same,GI50,A549 NSCLC,> 100 µM
same,TGI,A549 NSCLC,> 100 µM
same,GI50,SN12C renal,> 51.5 µM
same,TGI,SN12C renal,> 100 µM
same,GI50,DU-145 prostate,> 100 µM
same,TGI,DU-145 prostate,> 100 µM
same,GI50,HL-60(TB) leukemia,> 100 µM
same,TGI,HL-60(TB) leukemia,> 100 µM
same,GI50,OVCAR-8 ovarian,> 100 µM
same,TGI,OVCAR-8 ovarian,> 100 µM
same,GI50,UACC-257 melanoma,> 91.9 µM
same,TGI,UACC-257 melanoma,> 100 µM
same,GI50,MALME-3M melanoma,> 59.7 µM
same,TGI,MALME-3M melanoma,> 100 µM
same,GI50,KM12 colon,> 100 µM
same,TGI,KM12 colon,> 100 µM
same,GI50,RPMI-8226 leukemia,36.1 µM
same,TGI,RPMI-8226 leukemia,> 100 µM
same,GI50,ACHN renal,> 100 µM
same,TGI,ACHN renal,> 100 µM
same,GI50,SNB-75 CNS,> 100 µM
same,TGI,SNB-75 CNS,> 100 µM
same,GI50,HOP-92 NSCLC,20.9 µM
same,TGI,HOP-92 NSCLC,> 100 µM
same,GI50,UO-31 renal,> 100 µM
same,TGI,UO-31 renal,> 100 µM
same,GI50,SK-OV-3 ovarian,> 70.1 µM
same,TGI,SK-OV-3 ovarian,> 100 µM
same,GI50,A498 renal,1.01 µM
same,TGI,A498 renal,46.1 µM
same,GI50,OVCAR-4 ovarian,> 100 µM
same,TGI,OVCAR-4 ovarian,> 100 µM
same,GI50,NCI-H460 lung,> 75.8 µM
same,TGI,NCI-H460 lung,> 100 µM
same,GI50,CCRF-CEM leukemia,71.2 µM
same,TGI,CCRF-CEM leukemia,> 100 µM
same,GI50,UACC-62 melanoma,42.3 µM
same,TGI,UACC-62 melanoma,> 100 µM
same,GI50,LOX IMVI melanoma,57 µM
same,TGI,LOX IMVI melanoma,> 100 µM
same,GI50,NCI-H522 lung,> 100 µM
same,TGI,NCI-H522 lung,> 100 µM
same,GI50,MDA-MB-435,97.3 µM
same,TGI,MDA-MB-435,> 100 µM
